Assay results: PubChem BioAssay AID256 (DTP/NCI, 2004)
Where “and” joins values, the source holds several entries; their conditions need not be identical. Equal entries are not always repeated. Inconclusive results and toxic doses are left out.

System: CD2F1 mice, L1210 leukemia ip, survival T/C
Assay: NCI In Vivo Anticancer Drug Screen. Data for tumor model L1210 Leukemia (intraperitoneal) in CD2F1 (CDF1) mice
Details: higher = longer survival
Procedure, shortened: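 Activity against a transplanted murine tumor was judged by comparing the compound group with a vehicle group. The outcome in the treated animals was divided by that in the controls.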

[1] = endpoint: mean survival time, dose: 100.0 mg/kg/injection, schedule: Q04DX003 (ip), vehicle: saline
[2] = endpoint: mean survival time, dose: 200.0 mg/kg/injection, schedule: Q04DX003 (ip), vehicle: saline
[3] = endpoint: mean survival time, dose: 50.0 mg/kg/injection, schedule: Q01DX009 (ip), vehicle: saline with Tween-80
[4] = endpoint: mean survival time, dose: 100.0 mg/kg/injection, schedule: Q01DX009 (ip), vehicle: saline with Tween-80
[5] = endpoint: mean survival time, dose: 100.0 mg/kg/injection, schedule: Q04DX003 (ip), vehicle: saline with Tween-80
[6] = endpoint: mean survival time, dose: 200.0 mg/kg/injection, schedule: Q01DX009 (ip), vehicle: saline with Tween-80
[7] = endpoint: mean survival time, dose: 200.0 mg/kg/injection, schedule: Q04DX003 (ip), vehicle: saline with Tween-80
[8] = endpoint: mean survival time, dose: 400.0 mg/kg/injection, schedule: Q04DX003 (ip), vehicle: saline
[9] = endpoint: mean survival time, dose: 100.0 mg/kg/injection, schedule: Q01DX001 (ip), vehicle: saline with Tween-80
[10] = endpoint: mean survival time, dose: 100.0 mg/kg/injection, schedule: Q04DX002 (ip), vehicle: saline with Tween-80
[11] = endpoint: mean survival time, dose: 400.0 mg/kg/injection, schedule: Q01DX009 (ip), vehicle: saline with Tween-80
[12] = endpoint: mean survival time, dose: 400.0 mg/kg/injection, schedule: Q04DX003 (ip), vehicle: saline with Tween-80

O=c1[nH]c(=O)n(C2CC(O)C(CO)O2)cc1I (stereo not drawn) was tested, and the T/C (endpoint: mean survival time, dose: 50.0 mg/kg/injection, schedule: Q01DX007 (ip), vehicle: saline) was 110 % of control, the T/C (endpoint: mean survival time, dose: 50.0 mg/kg/injection, schedule: Q01DX009 (ip), vehicle: saline) was 106 % of control and the T/C (endpoint: mean survival time, dose: 50.0 mg/kg/injection, schedule: Q03DX003 (ip), vehicle: saline) was 104 % of control. For the same molecule, the T/C (endpoint: mean survival time, dose: 50.0 mg/kg/injection, schedule: Q04DX003 (ip), vehicle: saline) was 101 % of control, the T/C (endpoint: mean survival time, dose: 100.0 mg/kg/injection, schedule: Q01DX007 (ip), vehicle: saline) was 117 % of control and the T/C (endpoint: mean survival time, dose: 100.0 mg/kg/injection, schedule: Q01DX009 (ip), vehicle: saline) was 108 % of control. The T/C (endpoint: mean survival time, dose: 100.0 mg/kg/injection, schedule: Q03DX003 (ip), vehicle: saline) was 107 % of control, the T/C [1] was 106 % of control and the T/C (endpoint: mean survival time, dose: 200.0 mg/kg/injection, schedule: Q01DX007 (ip), vehicle: saline) was 108 % of control. The T/C (endpoint: mean survival time, dose: 200.0 mg/kg/injection, schedule: Q01DX009 (ip), vehicle: saline) was 111 % of control, the T/C (endpoint: mean survival time, dose: 200.0 mg/kg/injection, schedule: Q03DX003 (ip), vehicle: saline) was 115 % of control and the T/C [2] was 106 % of control. The T/C (endpoint: mean survival time, dose: 500.0 mg/kg/injection, schedule: Q01DX009 (ip), vehicle: saline) was 107 % of control and the T/C (endpoint: mean survival time, dose: 1000.0 mg/kg/injection, schedule: Q01DX009 (ip), vehicle: saline) was 103 % of control.
CCNc1nc(NCC)nc(OC)n1 was tested, and the T/C [3] was 95 % of control, the T/C [4] was 105 % of control and the T/C [5] was 87 % of control. The T/C [6] was 103 % of control and the T/C [7] was 89 % of control.
With O=c1nc(N2CCSCC2)ccn1C1OC(CO)C(O)C1O (stereo not drawn) the T/C (endpoint: median survival time, dose: 12.5 mg/kg/injection, schedule: Q01DX005 (ip), vehicle: water) was 100 % of control, the T/C (endpoint: median survival time, dose: 25.0 mg/kg/injection, schedule: Q01DX005 (ip), vehicle: water) was 101 % of control and the T/C (endpoint: median survival time, dose: 50.0 mg/kg/injection, schedule: Q01DX005 (ip), vehicle: water) was 102 % of control. For the same molecule, the T/C (endpoint: median survival time, dose: 100.0 mg/kg/injection, schedule: Q01DX005 (ip), vehicle: water) was 101 % of control and the T/C (endpoint: median survival time, dose: 200.0 mg/kg/injection, schedule: Q01DX005 (ip), vehicle: water) was 103 % of control.
CCOC(=O)N(CCCl)C(=O)C(C)C was tested, and the T/C [1] was 95 % of control, the T/C [2] was 92 % of control and the T/C [8] was 97 % of control.
In the case of O=c1nc(Nc2ccccc2)ccn1C1OC(CO)C(O)C1O (stereo not drawn), the T/C (endpoint: mean survival time, dose: 100.0 mg/kg/injection, schedule: Q01DX005 (ip), vehicle: distilled water + Tween-80) is reported as 98 % of control, the T/C (endpoint: mean survival time, dose: 200.0 mg/kg/injection, schedule: Q01DX005 (ip), vehicle: distilled water + Tween-80) is reported as 107 % of control and the T/C (endpoint: mean survival time, dose: 400.0 mg/kg/injection, schedule: Q01DX005 (ip), vehicle: distilled water + Tween-80) is reported as 110 % of control.
With CC(=O)Oc1ccc(Nc2c3ccccc3nc3ccccc23)cc1 the T/C (endpoint: mean survival time, dose: 44.0 mg/kg/injection, schedule: Q01DX001 (ip), vehicle: saline with Tween-80) was 119 % of control, the T/C (endpoint: mean survival time, dose: 44.0 mg/kg/injection, schedule: Q01DX009 (ip), vehicle: saline with Tween-80) was 155 % of control and the T/C (endpoint: mean survival time, dose: 66.0 mg/kg/injection, schedule: Q01DX001 (ip), vehicle: saline with Tween-80) was 109 % of control. The T/C (endpoint: mean survival time, dose: 66.0 mg/kg/injection, schedule: Q01DX009 (ip), vehicle: saline with Tween-80) was 94 % of control, the T/C [9] was 152 % of control and the T/C [4] was 88 % of control. The T/C [10] was 177 % of control.
For Cc1ccc(NC(=O)Nc2ccc(Nc3ccccc3)cc2)c([N+](=O)[O-])c1, the T/C (endpoint: mean survival time, dose: 100.0 mg/kg/injection, schedule: Q01DX009 (ip), vehicle: Klucel (hydroxypropylcellulose) (HPC)) was 89 % of control, the T/C (endpoint: mean survival time, dose: 200.0 mg/kg/injection, schedule: Q01DX009 (ip), vehicle: Klucel (hydroxypropylcellulose) (HPC)) was 92 % of control and the T/C (endpoint: mean survival time, dose: 400.0 mg/kg/injection, schedule: Q01DX009 (ip), vehicle: Klucel (hydroxypropylcellulose) (HPC)) was 89 % of control.
With CCOC(=O)Nc1nccs1 the T/C (endpoint: mean survival time, dose: 25.0 mg/kg/injection, schedule: Q01DX009 (ip), vehicle: saline with Tween-80) was 98 % of control, the T/C [3] was 100 % of control and the T/C [4] was 98 % of control. The T/C (endpoint: mean survival time, dose: 100.0 mg/kg/injection, schedule: Q04DX003 (ip), vehicle: Klucel (hydroxypropylcellulose) (HPC)) was 101 % of control and the T/C (endpoint: mean survival time, dose: 200.0 mg/kg/injection, schedule: Q04DX003 (ip), vehicle: Klucel (hydroxypropylcellulose) (HPC)) was 97 % of control.
In the case of CC(=O)OCC(=O)C1(O)CCC2C3CCC4=CC(=O)CCC4(C)C34OC4CC21C (stereo not drawn), the T/C [4] is reported as 98 % of control, the T/C [6] is reported as 94 % of control and the T/C [11] is reported as 91 % of control.
CN(C)C(=O)OCC#CCOC(=O)N(C)C was tested, and the T/C (endpoint: mean survival time, dose: 100.0 mg/kg/injection, schedule: Q04DX002 (ip), vehicle: saline) was 101 % of control and the T/C (endpoint: mean survival time, dose: 200.0 mg/kg/injection, schedule: Q04DX002 (ip), vehicle: saline) was 86 % of control.
CCC(=O)c1cc2c(cc1CC)C(C)(C)CCC2(C)C was tested, and the T/C (endpoint: mean survival time, dose: 50.0 mg/kg/injection, schedule: Q01DX001 (ip), vehicle: saline) was 93 % of control, the T/C (endpoint: mean survival time, dose: 100.0 mg/kg/injection, schedule: Q01DX001 (ip), vehicle: saline) was 93 % of control and the T/C [1] was 101 % of control. The T/C (endpoint: mean survival time, dose: 200.0 mg/kg/injection, schedule: Q01DX001 (ip), vehicle: saline) was 93 % of control, the T/C [2] was 97 % of control and the T/C (endpoint: mean survival time, dose: 400.0 mg/kg/injection, schedule: Q01DX001 (ip), vehicle: saline) was 91 % of control. For the same molecule, the T/C [8] was 90 % of control.
O=C(Nc1ccc2c(c1)OCO2)O/N=C1\C(=O)Nc2ccccc21 was tested, and the T/C [5] was 100 % of control and the T/C [7] was 86 % of control.
With CC(=O)OCC1OC(OC(C)=O)C(NC(=O)N(CCSCCCl)N=O)C(OC(C)=O)C1OC(C)=O (stereo not drawn) the T/C (endpoint: mean survival time, dose: 0.78 mg/kg/injection, schedule: Q01DX001 (ip), vehicle: water) was 96 % of control, the T/C (endpoint: mean survival time, dose: 1.56 mg/kg/injection, schedule: Q01DX001 (ip), vehicle: water) was 102 % of control and the T/C (endpoint: mean survival time, dose: 3.12 mg/kg/injection, schedule: Q01DX001 (ip), vehicle: water) was 106 % of control. The T/C (endpoint: mean survival time, dose: 6.25 mg/kg/injection, schedule: Q01DX001 (ip), vehicle: distilled water + Tween-80) was 106 % of control and the T/C (endpoint: mean survival time, dose: 6.25 mg/kg/injection, schedule: Q01DX001 (ip), vehicle: water) was 106 % of control.
In the case of C=CCC#N, the T/C (endpoint: mean survival time, dose: 100.0 mg/kg/injection, schedule: Q04DX003 (ip), vehicle: saline sonified) is reported as 90 % of control.
N#C/C(=C\C=C\c1cccc([N+](=O)[O-])c1)c1ccccc1 was tested, and the T/C [9] was 96 % of control, the T/C [4] was 100 % of control and 103 % of control and the T/C [10] was 102 % of control. For the same molecule, the T/C [5] was 97 % of control, the T/C (endpoint: mean survival time, dose: 200.0 mg/kg/injection, schedule: Q01DX001 (ip), vehicle: saline with Tween-80) was 105 % of control and the T/C [6] was 96 % of control and 107 % of control. The T/C (endpoint: mean survival time, dose: 200.0 mg/kg/injection, schedule: Q04DX002 (ip), vehicle: saline with Tween-80) was 98 % of control, the T/C [7] was 105 % of control and the T/C (endpoint: mean survival time, dose: 400.0 mg/kg/injection, schedule: Q01DX001 (ip), vehicle: saline with Tween-80) was 97 % of control. For the same molecule, the T/C [11] was 94 % of control and 100 % of control, the T/C (endpoint: mean survival time, dose: 400.0 mg/kg/injection, schedule: Q04DX002 (ip), vehicle: saline with Tween-80) was 100 % of control and the T/C [12] was 94 % of control.
Nc1ccn(C2CC3[O][Sn]([c]4ccccc4)([c]4ccccc4)[O]CC3O2)c(=O)n1 (stereo not drawn) was tested, and the T/C (endpoint: mean survival time, dose: 6.25 mg/kg/injection, schedule: Q01DX005 (ip), vehicle: distilled water + Tween-80) was 103 % of control, the T/C (endpoint: mean survival time, dose: 12.5 mg/kg/injection, schedule: Q01DX005 (ip), vehicle: distilled water + Tween-80) was 93 % of control and the T/C (endpoint: mean survival time, dose: 25.0 mg/kg/injection, schedule: Q01DX005 (ip), vehicle: distilled water + Tween-80) was 93 % of control. For the same molecule, the T/C (endpoint: mean survival time, dose: 50.0 mg/kg/injection, schedule: Q01DX005 (ip), vehicle: distilled water + Tween-80) was 88 % of control.
O=P1(N(CCCl)CCCl)NCCCO1.[Cl][Sb]([Cl])[Cl] (stereo not drawn) was tested, and the T/C (endpoint: mean survival time, dose: 31.25 mg/kg/injection, schedule: Q01DX001 (ip), vehicle: olive oil, sesame oil, peanut oil) was 109 % of control, the T/C (endpoint: mean survival time, dose: 62.5 mg/kg/injection, schedule: Q01DX001 (ip), vehicle: olive oil, sesame oil, peanut oil) was 113 % of control and the T/C (endpoint: mean survival time, dose: 125.0 mg/kg/injection, schedule: Q01DX001 (ip), vehicle: olive oil, sesame oil, peanut oil) was 109 % of control.
O=C(c1ccccc1)C(Sc1ccccc1)c1ccccc1 (stereo not drawn) was tested, and the T/C [5] was 97 % of control, the T/C [7] was 101 % of control and the T/C [12] was 97 % of control.
For CC1CN(Cc2ccccc2O)CC(C)N1 (stereo not drawn), the T/C (endpoint: mean survival time, dose: 25.0 mg/kg/injection, schedule: Q01DX005 (ip), vehicle: water) was 96 % of control, the T/C (endpoint: mean survival time, dose: 50.0 mg/kg/injection, schedule: Q01DX005 (ip), vehicle: water) was 94 % of control and the T/C (endpoint: mean survival time, dose: 100.0 mg/kg/injection, schedule: Q01DX005 (ip), vehicle: water) was 94 % of control.
With CCCc1cc(CCC)nc(NNc2nc(CCC)cc(CCC)n2)n1 the T/C [5] was 96 % of control, the T/C [7] was 94 % of control and the T/C [12] was 96 % of control.
